Converted amounts (≈) assume the structure as drawn. “And” between values parts separate entries of the source, which are not always exact repeats. Identical values can stand only once. “Also recorded” adds a separate entry of the source. Like-named read-outs stand apart in the source and are kept apart here. Square brackets hold non-standard residues; d marks the D form. Peptide text beside a SMILES is read from it.
Columns and labels:
[1] = amide bond, 15-membered ring, PyBOP/DIEA, DCM, 0.375 mM, 25.0 °C
[2] = system: A549; assay type: cell-based, human; settings: 72 h
Method: (§1) Cell culture: MCF-7/MD-MAB-231 (human breast cancer cell line ATCC HTB-22/HTB-26), Hep G2 (human liver cancer cell line ATCC HB-8065), Hela (human cervical carcinoma cell line ATCC CCL-2), A459 (human lung cancer cell line ATCC CCL-185), and HUVEC (primary umbilical vein endothelial cell line ATCC PCS-100-010) were obtained from the Jinan Department of Pathology, University School of Medicine (Jinan University, Guangzhou, China). The cells were cultured in a Modified Eagle’s Medium (DMEM) including 10% fetal bovine serum, 1% penicillin-streptomycin, and antifungal agent, and cultured under standard conditions (5% CO2 atmosphere and temperature at 37 °C). The MTT method was used to evaluate the cytotoxicities of galaxamide and its analogues on the five cancerous cells. In this experiment, the number of regulated cells was 2 × 10^3 cells/well. Then, the cells, as well as galaxamide and its analogues of different concentrations (0, 2.5, 5, and 10 μg/mL), were seeded on a 96-well cell culture plate and cultured in a 37 °C, 5% CO2 incubator for 72 h. After that, 20 µL/well of MTT solution (5 mg/mL phosphate-buffered saline) was added and incubated for 5 h. The medium was discarded and replaced with 100 µL/well of DMSO to dissolve the formazan salt. The color intensity of the cell culture at 570 nm was measured using a microplate spectrophotometer (SpectroAma™ 250, Winooski, VT, USA).

[3] = system: MCF-7; assay type: cell-based, human; settings: 72 h
Method: as §1

[4] = system: MD-MBA-231; assay type: cell-based, human; settings: 72 h
Method: as §1

[5] = system: HepG2; assay type: cell-based, human; settings: 72 h
Method: as §1

[6] = system: Hela; assay type: cell-based, human; settings: 72 h
Method: as §1

[7] = system: HUVEC; assay type: cell-based, human; settings: 72 h
Method: as §1

[8] = system: MCF-7 cells; test: Cell cycle distribution by propidium iodide staining / flow cytometry; assay type: cell-based, human; settings: 0, 2.5, 5, 10 µg/mL, 72 h
Method: Therefore, propidium iodide (PI) staining method was used to further investigate the changes in the cell cycle distribution of MCF-7. In particular, MCF-7 cells were exposed to galaxamide, Z-3, and Z-6 with concentrations of 0, 2.5, 5, and 10 µg/mL for 72 h. Generally, the main effects of galaxamide, Z-3, and Z-6 on MCF-7 cells were in the G0/G1 phase. There was no obvious sub diploid peak in flow cytometry.
(§2) The concentration of 1 × 10^4 cells per well of MCF-7 cells were seeded in 96-well plates. The cell cultures were added to the compounds with a concentration of 0, 2.5, 5, and 10 µg/mL, and incubated for 72 h. After that, 5 µL of Annexin V-fluorescein isothiocyanate (FITC) and 5 µL of PI were added for dual staining of the cells for analysis by FACS flow cytometry. Cell cycles and apoptotic cells were determined by counting the FITC-positive and PI-negative fractions.

[9] = system: MCF-7 cells; test: Hoechst 33,342 staining of nuclear morphology; assay type: cell-based, human; settings: 72 h
Method: The morphological alteration of MCF-7 cells was analyzed by the method of Hoechst 33,342 staining (Figure 5). […] The pyknotic nuclei increased with the increasing concentration of these compounds.
[…] After that, the cell culture was washed with 1 mL of PBS and then added with 3 mL of 4% paraformaldehyde solution for 15 min. Then, 1 mL of the prepared Hoechst 33,342 staining solution was added. The resulting mixture was incubated at room temperature for 15 min in the dark.

[10] = system: MCF-7 cells; test: Annexin V-FITC/PI double staining apoptosis, flow cytometry; assay type: cell-based, human; settings: 0, 2.5, 5, 10 µg/mL, 72 h
Method: The Annexin V-FITC/PI double staining method was used to analyze the changes in the apoptosis of MCF-7 cells after 72 h of galaxamide, Z-3, and Z-6 exposure. […] At low concentrations, the effects of all the tested compounds were not obvious. When the concentration reached 10 μg/mL, the apoptotic effects of galaxamide, Z-3, and Z-6 on MCF-7 cells were more obvious in the late apoptotic state.
as §2
The apoptotic cells were quantified according to the instructions provided in an Annexin V-FITC (Sigma-Aldrich, St. Louis, MO, USA) cell apoptosis assay kit. Briefly, about 1.5 × 10^5 cells were plated in 96-well plates and treated with galaxamide and its representative analogues (0, 2.5, 5, and 10 µg/mL) for 48 h. The cells were then resuspended in a […] binding buffer. Afterward, […] of annexin V-fluorescein isothiocyanate (FITC) was added, followed by incubation in darkness at room temperature for 10 min. The cells were again resuspended in […] binding buffer and stained with […] PI. The prepared cells were then analyzed using a flow cytometry (Coulter Epics Elite, Miami, FL, USA). The cells in the FITC-positive and PI-negative fractions were regarded as apoptotic cells.

Structure (SMILES) | IC50 A549 [2] | IC50 MCF-7 [3] | IC50 MD-MBA-231 [4] | IC50 HepG2 [5] | IC50 Hela [6] | IC50 HUVEC [7] | other results
CC(C)C[C@@H]1NC(=O)[C@@H]2CCCN2C(=O)[C@@H](CC(C)C)NC(=O)[C@@H](CC(C)C)NC(=O)[C@@H]2CCCN2C1=O [Cyclo (D-Leu-Pro-Leu-Pro-D-Leu)] | – | – | – | – | – | – | ring closure, yield after HPLC ([1]; from H-dLeu-Pro-Leu-Pro-dLeu-OH?): 34.5%
CC(C)C[C@@H]1NC(=O)[C@H](CC(C)C)N(C)C(=O)[C@H](CC(C)C)NC(=O)[C@@H]2CCCN2C(=O)[C@H](CC(C)C)NC1=O [Compound Z-1, Cyclo (Leu-N-Me-Leu-Leu-Pro-Leu)] | 4.92 ± 0.84 µg/mL (≈ 8.73 µM) | 5.85 ± 1.28 µg/mL (≈ 10.4 µM) | 17.81 ± 0.60 µg/mL (≈ 31.6 µM) | 7.57 ± 0.17 µg/mL (≈ 13.4 µM) | 11.56 ± 0.65 µg/mL (≈ 20.5 µM) | >40 µg/mL | –
CC(C)C[C@@H]1NC(=O)[C@@H]2CCCN2C(=O)[C@H](CC(C)C)NC(=O)[C@@H]2CCCN2C(=O)[C@H](CC(C)C)NC1=O [Compound Z-2, Cyclo (Leu-Pro-Leu-Pro-Leu)] (cyclo(LLPLP)) | 7.97 ± 2.06 µg/mL (≈ 14.9 µM) | 4.68 ± 1.22 µg/mL (≈ 8.77 µM) | 14.45 ± 1.10 µg/mL (≈ 27.1 µM) | 11.95 ± 0.64 µg/mL (≈ 22.4 µM) | 14.50 ± 0.36 µg/mL (≈ 27.2 µM) | >40 µg/mL | –
CC(C)C[C@@H]1NC(=O)[C@@H]2CCCN2C(=O)[C@H](CC(C)C)NC(=O)[C@@H]2CCCN2C(=O)[C@@H](CC(C)C)NC1=O [Cyclo (Leu-Pro-Leu-Pro-D-Leu)] | – | – | – | – | – | – | ring closure, yield after HPLC ([1]; from H-dLeu-Pro-Leu-Pro-Leu-OH?): 58.9%
CC(C)C[C@@H]1NC(=O)[C@@H]2CCCN2C(=O)[C@@H](CC(C)C)NC(=O)[C@@H]2CCCN2C(=O)[C@H](CC(C)C)NC1=O [Cyclo (Leu-Pro-D-Leu-Pro-Leu)] | – | – | – | – | – | – | ring closure, yield after HPLC ([1]; from H-Leu-Pro-dLeu-Pro-Leu-OH?): 36.4%
CC(C)C[C@H]1NC(=O)[C@@H]2CCCN2C(=O)[C@@H](CC(C)C)NC(=O)[C@@H]2CCCN2C(=O)[C@@H](CC(C)C)NC1=O [Compound Z-8, Cyclo (D-Leu-Pro-D-Leu-Pro-D-Leu)] (cyclo(P[dL]P[dL][dL])) | 15.88 ± 1.42 µg/mL (≈ 29.8 µM) | 7.82 ± 1.18 µg/mL (≈ 14.7 µM) | 20.16 ± 2.24 µg/mL (≈ 37.8 µM) | 9.00 ± 0.83 µg/mL (≈ 16.9 µM) | 7.97 ± 0.61 µg/mL (≈ 14.9 µM) | >40 µg/mL | –
CC(C)C[C@@H]1NC(=O)[C@H](CC(C)C)N(C)C(=O)[C@H](CC(C)C)NC(=O)[C@@H]2CCCN2C(=O)[C@H](CC(C)C)NC1=O [Cyclo (Leu-N-Me-Leu-Leu-Pro-Leu)] | – | – | – | – | – | – | ring closure, yield after HPLC ([1]; from H-Leu-Pro-Leu-MeLeu-Leu-OH): 40.7%
CC(C)C[C@@H]1NC(=O)[C@@H]2CCCN2C(=O)[C@@H](CC(C)C)NC(=O)[C@@H]2CCCN2C(=O)[C@H](CC(C)C)NC1=O [Compound Z-5, Cyclo (Leu-Pro-Leu-Pro-D-Leu)] (cyclo(LLP[dL]P)) | 9.50 ± 1.13 µg/mL (≈ 17.8 µM) | 13.43 ± 1.96 µg/mL (≈ 25.2 µM) | 8.48 ± 1.12 µg/mL (≈ 15.9 µM) | 14.98 ± 0.93 µg/mL (≈ 28.1 µM) | 12.12 ± 0.95 µg/mL (≈ 22.7 µM) | >40 µg/mL | –
CC(C)C[C@@H]1NC(=O)[C@@H]2CCCN2C(=O)[C@@H](CC(C)C)NC(=O)[C@@H]2CCCN2C(=O)[C@@H](CC(C)C)NC1=O [Compound Z-7, Cyclo (Leu-Pro-D-Leu-Pro-D-Leu)] (cyclo(L[dL]P[dL]P)) | 9.97 ± 1.00 µg/mL (≈ 18.7 µM) | 13.28 ± 3.28 µg/mL (≈ 24.9 µM) | 16.52 ± 1.70 µg/mL (≈ 31 µM) | 13.85 ± 1.99 µg/mL (≈ 26 µM) | 18.21 ± 1.35 µg/mL (≈ 34.1 µM) | >40 µg/mL | –
CC(C)C[C@@H]1NC(=O)[C@@H]2CCCN2C(=O)[C@H](CC(C)C)NC(=O)[C@@H]2CCCN2C(=O)[C@@H](CC(C)C)NC1=O [Compound Z-4, Cyclo (Leu-Pro-D-Leu-Pro-Leu)] (cyclo(LPL[dL]P)) | 9.85 ± 0.95 µg/mL (≈ 18.5 µM) | 4.88 ± 0.58 µg/mL (≈ 9.14 µM) | 22.09 ± 1.12 µg/mL (≈ 41.4 µM) | 15.23 ± 1.14 µg/mL (≈ 28.5 µM) | 7.38 ± 0.83 µg/mL (≈ 13.8 µM) | >40 µg/mL | –
CC(C)C[C@@H]1NC(=O)[C@@H]2CCCN2C(=O)[C@@H](CC(C)C)NC(=O)[C@@H](CC(C)C)NC(=O)[C@@H]2CCCN2C1=O [Compound Z-6, Cyclo (D-Leu-Pro-Leu-Pro-D-Leu)] (cyclo(LP[dL][dL]P)) | 5.96 ± 0.41 µg/mL (≈ 11.2 µM) | 1.65 ± 0.30 µg/mL (≈ 3.09 µM) | 4.59 ± 0.27 µg/mL (≈ 8.6 µM) | 2.91 ± 0.17 µg/mL (≈ 5.45 µM) | 5.69 ± 0.37 µg/mL (≈ 10.7 µM) | 38.72 ± 0.67 µg/mL (≈ 72.5 µM) | Effect on cell cycle of MCF-7 (in words) [8]: mainly blocked the growth of cells in the G0/G1 phase; Nuclear morphology of MCF-7 cells (in words) [9]: the morphology of the nuclei was significantly changed; Apoptosis of MCF-7 cells (in words) [10]: significantly higher than those of galaxamide; also recorded: concentration-dependent apoptosis
CC(C)C[C@@H]1NC(=O)[C@@H]2CCCN2C(=O)[C@@H](CC(C)C)NC(=O)[C@@H]2CCCN2C(=O)[C@@H](CC(C)C)NC1=O [Cyclo (Leu-Pro-D-Leu-Pro-D-Leu)] | – | – | – | – | – | – | ring closure, yield after HPLC ([1]; from H-dLeu-Pro-dLeu-Pro-Leu-OH?): 54.6%
CC(C)C[C@@H]1NC(=O)[C@@H]2CCCN2C(=O)[C@H](CC(C)C)NC(=O)[C@@H]2CCCN2C(=O)[C@H](CC(C)C)NC1=O [Cyclo (Leu-Pro-Leu-Pro-Leu)] | – | – | – | – | – | – | ring closure, yield after HPLC ([1]; from H-Leu-Pro-Leu-Pro-Leu-OH?): 35.5% and 53.9%
CC(C)C[C@@H]1NC(=O)[C@@H](CC(C)C)NC(=O)[C@@H]2CCCN2C(=O)[C@H](CC(C)C)NC(=O)[C@@H]2CCCN2C1=O [Compound Z-3, Cyclo (Leu-Pro-Leu-Pro-Leu)] (cyclo(LPLP[dL])) | 6.43 ± 0.43 µg/mL (≈ 12 µM) | 2.25 ± 0.42 µg/mL (≈ 4.22 µM) | 6.34 ± 0.60 µg/mL (≈ 11.9 µM) | 5.05 ± 0.45 µg/mL (≈ 9.46 µM) | 5.57 ± 0.45 µg/mL (≈ 10.4 µM) | >40 µg/mL | Effect on cell cycle of MCF-7 (in words) [8]: mainly blocked the growth of cells in the G0/G1 phase; Nuclear morphology of MCF-7 cells (in words) [9]: the morphology of the nuclei was significantly changed; Apoptosis of MCF-7 cells (in words) [10]: significantly higher than those of galaxamide; also recorded: concentration-dependent apoptosis
CC(C)C[C@H]1NC(=O)[C@@H]2CCCN2C(=O)[C@@H](CC(C)C)NC(=O)[C@@H]2CCCN2C(=O)[C@@H](CC(C)C)NC1=O [Cyclo (D-Leu-Pro-D-Leu-Pro-D-Leu)] | – | – | – | – | – | – | ring closure, yield after HPLC ([1]; from H-dLeu-Pro-dLeu-Pro-dLeu-OH?): 46.2%
